Results: patent US10774051B2, “6-membered heterocyclic derivatives and pharmaceutical composition comprising the same” (Shionogi & Co., Ltd., priority 2015, dated 2020)

Molecular target: human P2X7 receptor (Homo sapiens, UniProt Q99572, R270H/Y155H)
Assay: Evaluation of human P2X7 receptor inhibitory activity (Yo-Pro uptake, BzATP stimulation, FLIPR TETRA)
Format: cell-based
Settings: 1321N1 cells stably expressing human P2X7 receptor; BzATP stimulation, Yo-Pro uptake; read-out: IC50 (antagonistic activity for the human P2X7 receptor)
Method in brief: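 1321N1 cells stably expressing human P2X7 (T606C/G952A SNP variant), in HBSS buffer pH 7.4-7.5 with Yo-Pro, stimulated with BzATP; compound added 8 min after agonist. Fluorescence followed for 20 min on FLIPR; max-minus-min change gave % inhibition, IC50 by logistic fit.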

Row | Structure (SMILES) | IC50 [nM]
1 | COc1cn(Cc2ccc(F)c(Cl)c2)c(Nc2cc(S(C)(=O)=O)cc(C)c2C)nc1=O [Compound I-0755] | 12
2 | COc1cn(Cc2ccc(F)c(Cl)c2)c(Nc2cc3ncccc3cc2C)nc1=O [Compound I-0771] | 43
3 | COc1cn(Cc2cc(F)cc(F)c2)c(Nc2cc3ncccc3cc2C)nc1=O [Compound I-0774] | 110
4 | Cc1nc2cc(C)c(Nc3nc(=O)c(Cl)cn3Cc3ccccc3)cc2s1 [Compound I-0786] | 25
5 | Cc1nc2cc(C)c(Nc3nc(=O)c(F)cn3Cc3ccccc3)cc2s1 [Compound I-0788] | 12
6 | CCOc1cc(Nc2nc(=O)c(OC)cn2Cc2ccc(F)c(Cl)c2)c(C)cc1C [Compound I-0792] | 9
7 | CCc1cc(F)c(OC)cc1Nc1nc(=O)c(OC)cn1Cc1cc(F)cc(F)c1 [Compound I-0817] | 4
8 | COc1cn(Cc2cc(F)cc(Cl)c2)c(Nc2cc(Cl)cc3[nH]ccc23)nc1=O [Compound I-0821] | 5
9 | COc1cn(Cc2ccc(F)c(Cl)c2)c(Nc2ccc3oc(C)cc3c2C)nc1=O [Compound I-0825] | 9

Same assay, conditions: antagonistic activity for the human P2X7 receptor; read-out: IC50

Row | Structure (SMILES) | IC50 [nM]
10 | COc1cn(Cc2ccc(F)c(F)c2)c(Nc2cc(S(C)(=O)=O)cc(C)c2C)nc1=O [Compound I-0756] | 10 to 100
11 | COc1cn(Cc2cc(F)cc(Cl)c2)c(Nc2cc(S(C)(=O)=O)cc(C)c2C)nc1=O [Compound I-0757] | 10 to 100
12 | COc1cn(Cc2cc(F)cc(F)c2)c(Nc2cc(S(C)(=O)=O)cc(C)c2C)nc1=O [Compound I-0758] | 10 to 100
13 | CCOc1cn(Cc2ccccc2)c(Nc2cc(OC)c(OC)cc2C)nc1=O [Compound I-0759] | 10 to 100
14 | COc1cn(Cc2cc(F)c(F)c(F)c2)c(Nc2cc3nc(C)sc3cc2C)nc1=O [Compound I-0760] | 10 to 100
15 | COc1cn(Cc2ccccc2)c(Nc2cccc(C)c2F)nc1=O [Compound I-0761] | 100 to 500
16 | COc1cn(Cc2ccccc2)c(Nc2cccc(C)c2F)nc1=O [Compound I-0762] | 100 to 500
17 | COc1cc(C)c(Nc2nc(=O)c(OC)cn2Cc2cc(F)c(F)c(F)c2)cc1Cl [Compound I-0763] | < 10
18 | COc1cn(Cc2ccc(F)c(F)c2)c(Nc2cc(-c3cccnc3)ccc2C)nc1=O [Compound I-0764] | < 10
19 | COc1cn(Cc2cc(F)cc(Cl)c2)c(Nc2cc(-c3cccnc3)ccc2C)nc1=O [Compound I-0765] | 10 to 100
20 | COc1cn(Cc2cc(F)cc(F)c2)c(Nc2cc(-c3cccnc3)ccc2C)nc1=O [Compound I-0766] | < 10
21 | COc1cn(Cc2ccc(F)c(F)c2)c(Nc2cc(-c3ccc(C)o3)ccc2C)nc1=O [Compound I-0767] | 10 to 100
22 | COc1cn(Cc2cc(F)cc(Cl)c2)c(Nc2cc(-c3ccc(C)o3)ccc2C)nc1=O [Compound I-0768] | 10 to 100
23 | COc1cn(Cc2cc(F)cc(F)c2)c(Nc2cc(-c3ccc(C)o3)ccc2C)nc1=O [Compound I-0769] | 10 to 100
24 | COc1cn(Cc2ccccc2)c(Nc2cc3ncccc3cc2C)nc1=O [Compound I-0770] | 100 to 500
25 | COc1cn(Cc2ccc(F)c(F)c2)c(Nc2cc3ncccc3cc2C)nc1=O [Compound I-0772] | 10 to 100
26 | COc1cn(Cc2cc(F)cc(Cl)c2)c(Nc2cc3ncccc3cc2C)nc1=O [Compound I-0773] | 100 to 500
27 | COc1cn(Cc2ccc(F)c(Cl)c2)c(Nc2cc(C(C)(C)O)ccc2C)nc1=O [Compound I-0775] | 10 to 100
28 | COc1cn(Cc2cc(F)cc(Cl)c2)c(Nc2cc(C(C)(C)O)ccc2C)nc1=O [Compound I-0776] | 10 to 100
29 | CCOc1cc(Nc2nc(=O)c(OC)cn2Cc2cc(F)c(F)c(F)c2)c(C)cc1C [Compound I-0777] | < 10
30 | Cc1nc2cc(C)c(Nc3nc(=O)c(F)cn3Cc3ccc(F)c(Cl)c3)cc2s1 [Compound I-0778] | < 10
31 | COc1cc(Nc2nc(=O)c(OC)cn2Cc2ccc(F)c(F)c2)c(C)cc1F [Compound I-0779] | < 10
32 | COc1cc(Nc2nc(=O)c(OC)cn2Cc2cc(F)cc(Cl)c2)c(C)cc1F [Compound I-0780] | 10 to 100

Row | Structure (SMILES) | IC50 [nM]
33 | COc1cc(Nc2nc(=O)c(OC)cn2Cc2cc(F)cc(F)c2)c(C)cc1F [Compound I-0781] | 10 to 100
34 | COc1cn(Cc2ccccc2)c(Nc2cc(-c3ccnn3C)ccc2C)nc1=O [Compound I-0782] | 100 to 500
35 | COc1cn(Cc2ccc(F)c(F)c2)c(Nc2cc(-c3ccnn3C)ccc2C)nc1=O [Compound I-0783] | 10 to 100
36 | COc1cn(Cc2cc(F)cc(F)c2)c(Nc2cc(-c3ccnn3C)ccc2C)nc1=O [Compound I-0784] | 10 to 100
37 | COc1cn(Cc2cc(F)cc(F)c2)c(Nc2cc(C(C)(C)O)ccc2C)nc1=O [Compound I-0785] | 10 to 100
38 | Cc1nc2cc(C)c(Nc3nc(=O)c(Cl)cn3Cc3ccc(F)c(Cl)c3)cc2s1 [Compound I-0787] | < 10
39 | CCOc1cc(Nc2nc(=O)c(OC)cn2Cc2cc(F)cc(Cl)c2)c(C)cc1C [Compound I-0789] | < 10
40 | CCOc1cc(Nc2nc(=O)c(OC)cn2Cc2ccccc2)c(C)cc1C [Compound I-0790] | < 10
41 | CCOc1cc(Nc2nc(=O)c(OC)cn2Cc2cccc(Cl)c2)c(C)cc1C [Compound I-0791] | < 10
42 | CCOc1cc(Nc2nc(=O)c(OC)cn2Cc2ccc(F)c(F)c2)c(C)cc1C [Compound I-0793] | < 10
43 | CCOc1cc(Nc2nc(=O)c(OC)cn2Cc2cc(F)cc(F)c2)c(C)cc1C [Compound I-0794] | < 10
44 | CCOc1cn(Cc2ccc(F)c(Cl)c2)c(Nc2cc(OC)c(OC)cc2C)nc1=O [Compound I-0795] | < 10
45 | CCc1cc2c(cc1Nc1nc(=O)c(OC)cn1Cc1ccccc1)OCCO2 [Compound I-0796] | 10 to 100
46 | CCc1cc2c(cc1Nc1nc(=O)c(OC)cn1Cc1cc(F)cc(F)c1)OCCO2 [Compound I-0797] | 10 to 100
47 | CCc1cc2c(cc1Nc1nc(=O)c(OC)cn1Cc1ccc(F)c(Cl)c1)OCCO2 [Compound I-0798] | 10 to 100
48 | COc1cn(Cc2ccc(F)c(Cl)c2)c(Nc2ccc3occc3c2C)nc1=O [Compound I-0799] | < 10
49 | COc1cn(Cc2ccccc2)c(Nc2cc(C)c(OCC(F)(F)F)cc2C)nc1=O [Compound I-0800] | 10 to 100
50 | COc1cn(Cc2ccccc2)c(Nc2cc(C)c(Cl)cc2F)nc1=O [Compound I-0801] | 100 to 500
51 | COc1cn(Cc2cc(F)c(F)c(F)c2)c(Nc2cc(-c3cscn3)ccc2C)nc1=O [Compound I-0802] | < 10
52 | COc1cn(Cc2cc(F)c(F)c(F)c2)c(Nc2cc(N3CCCC3=O)ccc2C)nc1=O [Compound I-0803] | 10 to 100
53 | COc1cc(C)c(Nc2nc(=O)c(OC)cn2Cc2cc(F)c(F)c(F)c2)cc1F [Compound I-0804] | < 10
54 | COc1cn(Cc2cc(F)c(F)c(F)c2)c(Nc2cc(OC(F)F)c(C)cc2C)nc1=O [Compound I-0805] | < 10
55 | COc1cn(Cc2cc(F)cc(F)c2)c(Nc2cc(C)c(OCC(F)(F)F)cc2C)nc1=O [Compound I-0806] | 10 to 100

Row | Structure (SMILES) | IC50 [nM]
56 | COc1cn(Cc2ccc(F)c(Cl)c2)c(Nc2cc(C)c(OCC(F)(F)F)cc2C)nc1=O [Compound I-0807] | 10 to 100
57 | COc1cn(Cc2ccc(Cl)s2)c(Nc2cc(C)c(C)cc2C)nc1=O [Compound I-0808] | < 10
58 | COc1cn(Cc2ccc(F)c(Cl)c2)c(Nc2cc(Cl)c(F)cc2C)nc1=O [Compound I-0809] | 10 to 100
59 | COc1cn(Cc2ccc(F)c(F)c2)c(Nc2cc(Cl)c(F)cc2C)nc1=O [Compound I-0810] | 10 to 100
60 | COc1cn(Cc2cc(F)cc(Cl)c2)c(Nc2cc(Cl)c(F)cc2C)nc1=O [Compound I-0811] | 10 to 100
61 | COc1cn(Cc2cc(F)cc(F)c2)c(Nc2cc(Cl)c(F)cc2C)nc1=O [Compound I-0812] | 10 to 100
62 | CCc1cc(F)c(OC)cc1Nc1nc(=O)c(OC)cn1Cc1ccccc1 [Compound I-0813] | < 10
63 | CCc1cc(F)c(OC)cc1Nc1nc(=O)c(OC)cn1Cc1ccc(F)c(Cl)c1 [Compound I-0814] | < 10
64 | CCc1cc(F)c(OC)cc1Nc1nc(=O)c(OC)cn1Cc1ccc(F)c(F)c1 [Compound I-0815] | < 10
65 | CCc1cc(F)c(OC)cc1Nc1nc(=O)c(OC)cn1Cc1cc(F)cc(Cl)c1 [Compound I-0816] | < 10
66 | COc1cn(Cc2ccccc2)c(Nc2cc(Cl)cc3[nH]ccc23)nc1=O [Compound I-0818] | 10 to 100
67 | COc1cn(Cc2ccc(F)c(Cl)c2)c(Nc2cc(Cl)cc3[nH]ccc23)nc1=O [Compound I-0819] | 10 to 100
68 | COc1cn(Cc2ccc(F)c(F)c2)c(Nc2cc(Cl)cc3[nH]ccc23)nc1=O [Compound I-0820] | 10 to 100
69 | COc1cn(Cc2cc(F)cc(F)c2)c(Nc2cc(Cl)cc3[nH]ccc23)nc1=O [Compound I-0822] | 10 to 100
70 | COc1cn(Cc2ccc(F)c(Cl)c2)c(Nc2cc3c(cc2C)OC(F)(F)C(F)(F)O3)nc1=O [Compound I-0823] | 100 to 500
71 | COc1cn(Cc2ccc(F)c(Cl)c2)c(Nc2ccc3c(c2C)OC(F)(F)C(F)(F)O3)nc1=O [Compound I-0824] | 10 to 100
72 | COc1nc2ccc(Nc3nc(=O)c(OC)cn3Cc3ccc(F)c(Cl)c3)c(C)c2s1 [Compound I-0826] | 10 to 100
73 | COc1cn(Cc2ccccc2)c(Nc2cc(-c3ccccc3)ccc2C)nc1=O [Compound I-0827] | 10 to 100
74 | COc1cn(Cc2ccc(F)c(Cl)c2)c(Nc2cc(-c3ccccc3)ccc2C)nc1=O [Compound I-0828] | 10 to 100
75 | COc1cn(Cc2cc(F)cc(F)c2)c(Nc2cc(-c3ccccc3)ccc2C)nc1=O [Compound I-0829] | 10 to 100
76 | COc1nc2ccc(Nc3nc(=O)c(OC)cn3Cc3cc(F)cc(F)c3)c(C)c2s1 [Compound I-0830] | 10 to 100
77 | COc1ncccc1-c1ccc(C)c(Nc2nc(=O)c(OC)cn2Cc2cc(F)cc(F)c2)c1 [Compound I-0831] | < 10
78 | COc1ncccc1-c1ccc(C)c(Nc2nc(=O)c(OC)cn2Cc2cc(F)c(F)c(F)c2)c1 [Compound I-0832] | < 10
